Data reported in ChEMBL document CHEMBL1201862, “PubChem BioAssay data set” (2004).
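Tested at 5 concentrations; 48 h exposure; 96-well plates; endpoints linearly interpolated, else capped at highest concentration. Here, GI50 denotes the concentration required for 50% inhibition of growth.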 The source made the active and inactive calls. No stated cut-off is given here; in the data, active = GI50 up to about 1.1 µM and inactive = higher.

Experiments:
Test in all cases: NCI-60 cell line screen, 48 h
[1] = tested on: UO-31
[2] = tested on: HOP-92
[3] = tested on: KM12
[4] = tested on: NCI-H23
[5] = tested on: U-251
[6] = tested on: SNB-75
[7] = tested on: SF-539
[8] = tested on: MOLT-4
[9] = tested on: MDA-MB-231
[10] = tested on: HCT-15
[11] = tested on: SW-620
[12] = tested on: A549
[13] = tested on: SK-MEL-2
[14] = tested on: CAKI-1
[15] = tested on: OVCAR-4
[16] = tested on: MDA-N
[17] = tested on: OVCAR-5
[18] = tested on: T47D
[19] = tested on: SF-295
[20] = tested on: NCI-H460
[21] = tested on: NCI/ADR-RES
[22] = tested on: SN12C
[23] = tested on: K562
[24] = tested on: M14
[25] = tested on: COLO 205
[26] = tested on: HCT-116
[27] = tested on: SK-MEL-5
[28] = tested on: BT-549
[29] = tested on: MDA-MB-435
[30] = tested on: SK-MEL-28
[31] = tested on: IGROV-1
[32] = tested on: Malme-3M
[33] = tested on: SF-268
[34] = tested on: SNB-19
[35] = tested on: OVCAR-3
[36] = tested on: NCI-H522
[37] = tested on: UACC-257
[38] = tested on: HCC 2998
[39] = tested on: SR
[40] = tested on: HT-29
[41] = tested on: EKVX
[42] = tested on: PC-3
[43] = tested on: UACC-62
[44] = tested on: 786-0
[45] = tested on: NCI-H226
[46] = tested on: MCF7
[47] = tested on: RXF 393
[48] = tested on: HOP-62
[49] = tested on: ACHN
[50] = tested on: SK-OV-3
[51] = tested on: TK-10
[52] = tested on: DU-145
[53] = tested on: A498
[54] = tested on: Hs-578T
[55] = tested on: CCRF-CEM
[56] = tested on: RPMI-8226
[57] = tested on: OVCAR-8
[58] = tested on: HL-60
[59] = tested on: LOX IMVI

CCCCCC/C=C\CCCCCCCCCc1cccc(O)c1C(=O)O [GINKGOLIC ACID 17:1]
GI50 [1]: > 100 µM (inactive)
GI50 [2]: > 100 µM (inactive)
GI50 [3]: > 100 µM (inactive)
GI50 [4]: > 100 µM (inactive)
GI50 [5]: > 100 µM (inactive)
GI50 [6]: > 100 µM (inactive)
GI50 [7]: > 100 µM (inactive)
GI50 [8]: 83.8 µM (inactive)
GI50 [9]: > 100 µM (inactive)
GI50 [10]: 32.6 µM
GI50 [11]: > 100 µM (inactive)
GI50 [12]: > 100 µM (inactive)
GI50 [13]: 31.7 µM (inactive)
GI50 [14]: > 100 µM (inactive)
GI50 [15]: > 100 µM (inactive)
GI50 [16]: > 100 µM (inactive)
GI50 [17]: > 100 µM (inactive)
GI50 [18]: > 100 µM (inactive)
GI50 [19]: 59.3 µM (inactive)
GI50 [20]: > 100 µM (inactive)
GI50 [21]: > 100 µM (inactive)
GI50 [22]: > 100 µM (inactive)
GI50 [23]: 65.9 µM (inactive)
GI50 [24]: > 100 µM (inactive)
GI50 [25]: > 100 µM (inactive)
GI50 [26]: > 100 µM (inactive)
GI50 [27]: 35.5 µM (inactive)
GI50 [28]: > 100 µM (inactive)
GI50 [29]: > 100 µM (inactive)
GI50 [30]: > 100 µM (inactive)
GI50 [31]: > 100 µM (inactive)
GI50 [32]: > 100 µM (inactive)
GI50 [33]: > 100 µM (inactive)
GI50 [34]: 61.1 µM (inactive)
GI50 [35]: > 100 µM (inactive)
GI50 [36]: > 100 µM (inactive)
GI50 [37]: > 100 µM (inactive)
GI50 [38]: > 100 µM (inactive)
GI50 [39]: 45.4 µM (inactive)
GI50 [40]: > 100 µM (inactive)
GI50 [41]: > 100 µM (inactive)
GI50 [42]: 51.9 µM (inactive)
GI50 [43]: 34 µM (inactive)
GI50 [44]: > 100 µM (inactive)
GI50 [45]: 60.7 µM (inactive)
GI50 [46]: > 100 µM (inactive)
GI50 [47]: > 100 µM (inactive)
GI50 [48]: > 100 µM (inactive)
GI50 [49]: > 100 µM (inactive)
GI50 [50]: > 100 µM (inactive)
GI50 [51]: 65 µM (inactive)
GI50 [52]: > 100 µM (inactive)
GI50 [53]: > 100 µM (inactive)
GI50 [54]: > 100 µM (inactive)
GI50 [55]: 99.1 µM (inactive)
GI50 [56]: 84.3 µM (inactive)
GI50 [57]: > 100 µM (inactive)
GI50 [58]: > 100 µM (inactive)

C=CCN1C(=O)/C(=C/c2ccccc2)N=C1SC1OC(COC(C)=O)C(OC(C)=O)C(OC(C)=O)C1OC(C)=O (configuration not stated)
GI50 [2]: 23.7 µM (inactive)
GI50 [3]: 39.9 µM (inactive)
GI50 [4]: 24.9 µM (inactive)
GI50 [5]: 19.2 µM (inactive)
GI50 [6]: 21.9 µM (inactive)
GI50 [8]: 19.9 µM (inactive)
GI50 [9]: 18.6 µM (inactive)
GI50 [10]: 28.1 µM
GI50 [11]: 28.5 µM (inactive)
GI50 [12]: 34 µM (inactive)
GI50 [13]: 18.5 µM (inactive)
GI50 [14]: 16.3 µM (inactive)
GI50 [15]: 27.2 µM (inactive)
GI50 [16]: 29 µM (inactive)
GI50 [17]: 26 µM (inactive)
GI50 [18]: 27.2 µM (inactive)
GI50 [19]: 50.1 µM (inactive)
GI50 [20]: 42.8 µM (inactive)
GI50 [21]: 26.2 µM (inactive)
GI50 [22]: 24.2 µM (inactive)
GI50 [23]: 24.4 µM (inactive)
GI50 [24]: 30 µM (inactive)
GI50 [26]: 22.8 µM (inactive)
GI50 [28]: 28.6 µM (inactive)
GI50 [29]: 26.9 µM (inactive)
GI50 [30]: 26.1 µM (inactive)
GI50 [31]: 28.3 µM (inactive)
GI50 [32]: 19.5 µM (inactive)
GI50 [33]: 21.4 µM (inactive)
GI50 [34]: 29.6 µM (inactive)
GI50 [35]: 19.3 µM (inactive)
GI50 [36]: 16.3 µM (inactive)
GI50 [37]: 27.9 µM (inactive)
GI50 [38]: 49.7 µM (inactive)
GI50 [39]: 4.86 µM (inactive)
GI50 [40]: 32.7 µM (inactive)
GI50 [41]: 15.7 µM (inactive)
GI50 [42]: 16.5 µM (inactive)
GI50 [59]: 27.2 µM (inactive)
GI50 [43]: 14.4 µM (inactive)
GI50 [44]: 23.9 µM (inactive)
GI50 [46]: 28.5 µM (inactive)
GI50 [47]: 13.1 µM (inactive)
GI50 [48]: 37.8 µM (inactive)
GI50 [49]: 22.9 µM (inactive)
GI50 [50]: 38.7 µM (inactive)
GI50 [51]: 72.8 µM (inactive)
GI50 [52]: 26.6 µM (inactive)
GI50 [53]: 38.1 µM (inactive)
GI50 [54]: 25.5 µM (inactive)
GI50 [55]: 22.5 µM (inactive)
GI50 [56]: 24.4 µM (inactive)
GI50 [57]: 29.5 µM (inactive)
GI50 [58]: 26.5 µM (inactive)

CC[C@@H]1/C=C/C=C/C[C@H](C)[C@@H](O)[C@@H](C)C(=O)[C@H](C)[C@@H](O)[C@H](C)C(=O)[C@H](C)[C@@H](O)[C@H](C)/C=C/C(=O)O[C@H]2[C@@H](C)[C@@H](CC1)O[C@@]1(CC[C@@H](C)[C@@H](CC(C)O)O1)[C@@H]2C (some centres not stated)
GI50 [2]: 3.25 µM (inactive)
GI50 [3]: 3.41 µM (inactive)
GI50 [4]: 0.00361 µM (active)
GI50 [5]: 0.00361 µM (active)
GI50 [6]: 0.253 µM (active)
GI50 [7]: 6.46 µM (inactive)
GI50 [8]: 0.815 µM (active)
GI50 [9]: 4.35 µM (inactive)
GI50 [10]: 4.06 µM
GI50 [11]: 5.32 µM (inactive)
GI50 [12]: 0.012 µM (active)
GI50 [13]: 4.58 µM (inactive)
GI50 [14]: 4.15 µM (inactive)
GI50 [15]: 0.057 µM (active)
GI50 [16]: 3.06 µM (inactive)
GI50 [17]: 3.63 µM (inactive)
GI50 [18]: < 0.0025 µM (active)
GI50 [19]: < 0.0025 µM (active)
GI50 [20]: 2.17 µM (inactive)
GI50 [21]: 0.596 µM (active)
GI50 [22]: 1.94 µM (inactive)
GI50 [23]: 0.00504 µM (active)
GI50 [24]: 2.47 µM (inactive)
GI50 [25]: 0.00408 µM (active)
GI50 [26]: 2.58 µM (inactive)
GI50 [27]: < 0.0025 µM (active)
GI50 [28]: 4.32 µM (inactive)
GI50 [29]: 3.11 µM (inactive)
GI50 [30]: 10.6 µM (inactive)
GI50 [31]: 4.48 µM (inactive)
GI50 [32]: 6.34 µM (inactive)
GI50 [33]: 6.98 µM (inactive)
GI50 [34]: 0.00491 µM (active)
GI50 [35]: 2.62 µM (inactive)
GI50 [36]: 0.0188 µM (active)
GI50 [37]: < 0.0025 µM (active)
GI50 [38]: 1.78 µM (inactive)
GI50 [39]: 3.01 µM (inactive)
GI50 [40]: 2.94 µM (inactive)
GI50 [41]: < 0.0025 µM (active)
GI50 [42]: 0.00678 µM (active)
GI50 [59]: 5.83 µM (inactive)
GI50 [43]: 3.32 µM (inactive)
GI50 [44]: 5.9 µM (inactive)
GI50 [46]: 0.00269 µM (active)
GI50 [47]: 3.07 µM (inactive)
GI50 [48]: 4.38 µM (inactive)
GI50 [49]: 0.17 µM (active)
GI50 [50]: 7.76 µM (inactive)
GI50 [51]: 0.528 µM (active)
GI50 [52]: 3.37 µM (inactive)
GI50 [53]: 0.0989 µM (active)
GI50 [54]: 6.03 µM (inactive)
GI50 [55]: 1.75 µM (inactive)
GI50 [56]: 0.057 µM (active)
GI50 [57]: 0.00464 µM (active)
GI50 [58]: 0.00847 µM (active)

CC(=O)Oc1ccc(C2SCc3nc4ccccc4n32)cc1 (configuration not stated)
GI50 [1]: 8.57 µM (inactive)
GI50 [2]: 25.2 µM (inactive)
GI50 [3]: 15.3 µM (inactive)
GI50 [4]: 16.3 µM (inactive)
GI50 [5]: 25.6 µM (inactive)
GI50 [6]: 19.9 µM (inactive)
GI50 [7]: 41 µM (inactive)
GI50 [8]: 16.1 µM (inactive)
GI50 [9]: 27.4 µM (inactive)
GI50 [10]: 25.8 µM
GI50 [11]: 35.8 µM (inactive)
GI50 [12]: 32.2 µM (inactive)
GI50 [13]: 22.5 µM (inactive)
GI50 [14]: 24.4 µM (inactive)
GI50 [15]: 24.4 µM (inactive)
GI50 [16]: 14.8 µM (inactive)
GI50 [17]: 69.5 µM (inactive)
GI50 [18]: 18.3 µM (inactive)
GI50 [19]: 21.7 µM (inactive)
GI50 [20]: 41.1 µM (inactive)
GI50 [21]: 14.8 µM (inactive)
GI50 [22]: 49.8 µM (inactive)
GI50 [23]: 7.23 µM (inactive)
GI50 [24]: 48.6 µM (inactive)
GI50 [25]: 19.3 µM (inactive)
GI50 [26]: 23.3 µM (inactive)
GI50 [27]: 24.7 µM (inactive)
GI50 [28]: 6.4 µM (inactive)
GI50 [29]: 5.48 µM (inactive)
GI50 [30]: 52.7 µM (inactive)
GI50 [31]: 30.7 µM (inactive)
GI50 [32]: 30.2 µM (inactive)
GI50 [33]: 21 µM (inactive)
GI50 [34]: 50.6 µM (inactive)
GI50 [35]: 24.4 µM (inactive)
GI50 [36]: 22.8 µM (inactive)
GI50 [37]: 33.5 µM (inactive)
GI50 [38]: 33 µM (inactive)
GI50 [39]: 15.6 µM (inactive)
GI50 [40]: 23.3 µM (inactive)
GI50 [41]: 26.9 µM (inactive)
GI50 [42]: 24.2 µM (inactive)
GI50 [59]: 29.6 µM (inactive)
GI50 [43]: 29.7 µM (inactive)
GI50 [44]: 39.4 µM (inactive)
GI50 [46]: 8 µM (inactive)
GI50 [47]: 24.2 µM (inactive)
GI50 [48]: 41 µM (inactive)
GI50 [49]: 30.8 µM (inactive)
GI50 [50]: 26.8 µM (inactive)
GI50 [51]: 35.2 µM (inactive)
GI50 [52]: 51.5 µM (inactive)
GI50 [53]: 27.2 µM (inactive)
GI50 [54]: 32.5 µM (inactive)
GI50 [55]: 26.5 µM (inactive)
GI50 [56]: 14.5 µM (inactive)
GI50 [57]: 18.7 µM (inactive)
GI50 [58]: 10.6 µM (inactive)
